Assay [1] has as its target Solute carrier family 12 member 2/member 5 (Homo sapiens, UniProt P55011+Q9H2X9). The assay is described as follows: KCC2 and NKCC1 inhibition by rubidium flux, cell-based, NKCC1 counter-screen (AID 1734). It is filed as functional, HEK293. On the technique in general: A counterscreen serves to expose hits that act by an unwanted route or on another target.
The nature of assay [2]: P. falciparum late gametocyte killing, dose response, luminescence (AID 1117278).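 Note: gametocytes exposed to compound for 24 hours.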 It is filed as functional, cell-based.
Assay [3] is described as follows: Jurkat T cell cytotoxicity, dose response, cytotoxicity control for P. falciparum gametocyte viability project, luminescence (AID 1117277).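 Note: potency reflects loss of cellular ATP meaning fewer viable cells.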 It is filed as functional, cell-based.
Assay [4] is described as follows: A375 melanoma cell viability loss, dose response, counter-screen for MITF inhibitor project, CellTiter-Glo luminescence, dry powder, set 4 (AID 624364).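 Note: A375 melanoma cells are MITF independent so this is a counter screen.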 As to conditions: A-375. It is filed as functional, cell-based.
A short description of assay [5]: A375 melanoma cell cytotoxicity, dose response, counter-screen for MITF inhibitor project, CellTiter-Glo luminescence, dry powder, set 2 (AID 624489).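 Note: actives are compounds lowering A375 viability meaning general cytotoxicity.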 It is filed as functional, cell-based. The following applies: A-375.
The nature of assay [6]: P. falciparum 3D7-ScDHODH growth inhibitors, dose response, SYBR Green, dry powder samples (AID 1159570).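 Note: parasite growth measured after 72 hours of compound exposure.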 It is filed as functional, cell-based.
Assay [7] can be described thus: P. falciparum Dd2 growth inhibitors, dose response, SYBR Green, cherry-picked samples (AID 1159567). It is filed as functional, cell-based.
The nature of assay [8]: P. falciparum Dd2 growth inhibitors, dose response, SYBR Green, dry powder samples (AID 1159566).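 Note: potency for growth inhibition with lower SYBR green DNA signal.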 The class given is functional, cell-based.
Assay [9] in a line: P. falciparum ATP4 D1247Y mutant growth inhibitors, dose response, NITD609-resistant line, SYBR Green, dry powder (AID 1159571).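 Note: parasites synchronized at ring stage by sorbitol before testing.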 It is filed as functional, cell-based.
Assay [10] has as its target Luciferin 4-monooxygenase (Photinus pyralis, UniProt P08659). The assay is described as follows: firefly luciferase enzyme inhibitors, dose response, biochemical, luminescence (AID 1891).
The nature of assay [11]: Luminescence Cell-Based Dose Confirmation HTS to Identify Inhibitors of Platelet Dense Granule Release. [Related pubchem assays: 1663 (Primary HTS), 1678 (Summary of Project)]. It is filed as functional.
The nature of assay [12]: microbe, parasite or virus in culture. It is filed as functional. As to conditions: Mycobacterium tuberculosis.
Assay [13] in a line: THP-1 cell cytotoxicity, dose response, cytotoxicity control for non-replicating M. tuberculosis project (AID 489025). It is filed as functional.
Assay [14] in a line: Vero E6 cell cytotoxicity, dose response, cytotoxicity control for non-replicating M. tuberculosis project, secondary assay (AID 492998). It is filed as functional, VeroE6. As to conditions: Vero C1008.
A further assay can be described thus: cells. The class given is functional.
The nature of assay [15]: AlphaScreen signal interference compounds, dose response, artefact control for ARNT-TACC3 interaction inhibitor project, biochemical, luminescence, cherry-pick (AID 651705).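 Note: AlphaScreen bead proximity signal that flags compounds interfering with the detection technology; potency reflects signal decrease which marks the compound as an assay artifact.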 It is filed as functional.
Assay [16] can be described thus: ARNT/TACC3 interaction disruptors, potency, confirmation, biochemical, AlphaScreen, cherry-picked samples (AID 651703).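 Note: His-tagged ARNT PAS-B domain paired with GST-TACC3 E629A dimer coactivator fragment; potency of inhibitors that break up the complex and lower AlphaScreen signal.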 The class given is functional, Homo sapiens.
The nature of assay [17]: Artemis endonuclease inhibitor potency, dose response, biochemical, fluorescence intensity (AID 720701).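 Note: Artemis endonuclease enzyme.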 The class given is functional.
The test system of assay [18] is HEK293. The assay is described as follows: NOD1 signaling inhibitors, primary screen, cell-based, luminescence, uHTS (AID 1578). The following applies: Homo sapiens. The class given is functional.
Assay [19] has as its system HEK293. The assay is described as follows: cells. It is filed as functional, cell-based. The following applies: Homo sapiens.
In assay [20] the test system is HEK293. The assay is described as follows: cells. It is filed as functional, cell-based. The following applies: Homo sapiens. The source holds these as a separate data set.
The target in assay [21] is Nucleotide-binding oligomerization domain-containing protein 2 (Homo sapiens, UniProt Q9HC29). The assay is described as follows: NOD2 signaling inhibitors, cell-based, luminescence, uHTS, HEK293 (AID 1566). The class given is functional.
Sequence of Nucleotide-binding oligomerization domain-containing protein 2 (Q9HC29 whole entry, the tested form may be a part): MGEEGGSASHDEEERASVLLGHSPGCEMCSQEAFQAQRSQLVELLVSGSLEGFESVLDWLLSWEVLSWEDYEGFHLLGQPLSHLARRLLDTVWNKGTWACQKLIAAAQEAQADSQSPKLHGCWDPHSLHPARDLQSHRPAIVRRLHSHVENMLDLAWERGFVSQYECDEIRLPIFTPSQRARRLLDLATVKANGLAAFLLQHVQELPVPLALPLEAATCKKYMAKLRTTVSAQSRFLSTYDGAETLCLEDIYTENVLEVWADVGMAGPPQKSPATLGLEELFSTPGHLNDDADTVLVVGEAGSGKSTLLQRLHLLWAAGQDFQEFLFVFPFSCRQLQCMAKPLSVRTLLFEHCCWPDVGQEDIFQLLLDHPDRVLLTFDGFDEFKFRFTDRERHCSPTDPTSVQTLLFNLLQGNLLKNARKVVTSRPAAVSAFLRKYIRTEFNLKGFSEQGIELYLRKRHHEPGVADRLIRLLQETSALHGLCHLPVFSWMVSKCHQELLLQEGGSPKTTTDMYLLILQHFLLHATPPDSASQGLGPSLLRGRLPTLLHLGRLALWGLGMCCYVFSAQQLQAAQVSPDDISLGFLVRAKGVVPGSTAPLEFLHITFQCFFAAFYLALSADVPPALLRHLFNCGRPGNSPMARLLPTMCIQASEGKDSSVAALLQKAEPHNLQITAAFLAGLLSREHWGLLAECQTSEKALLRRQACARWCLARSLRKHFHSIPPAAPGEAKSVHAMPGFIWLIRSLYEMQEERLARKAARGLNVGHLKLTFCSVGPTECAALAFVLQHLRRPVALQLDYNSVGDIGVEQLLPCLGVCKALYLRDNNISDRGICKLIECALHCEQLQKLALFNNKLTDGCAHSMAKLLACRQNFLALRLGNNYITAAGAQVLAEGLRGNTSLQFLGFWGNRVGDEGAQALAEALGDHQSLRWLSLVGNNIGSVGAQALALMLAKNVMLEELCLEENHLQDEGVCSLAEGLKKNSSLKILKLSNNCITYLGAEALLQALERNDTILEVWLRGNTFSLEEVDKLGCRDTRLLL
Assay [22] deals with HEK293. The assay is described as follows: NOD2 signaling inhibitors in MDP-stimulated cells, cell-based, uHTS, luminescence (AID 2001). The class given is functional. As to conditions: Homo sapiens.
Assay [23] deals with HEK293. The assay is described as follows: cells. It is filed as functional, cell-based. The following applies: Homo sapiens. The source holds these as a separate data set.
Assay [24] concerns the target Neurotensin receptor type 1 (Homo sapiens, UniProt P30989). It is filed as functional.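 Note: Image-based confirmatory dose-response assay measuring agonist activity at NTR1; NTR1-expressing U2OS osteosarcoma cells imaged for beta-arrestin GFP spot formation; agonist potency where compounds increase beta-arrestin recruitment.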
The nature of assay [25]: Shn3 3'UTR reporter inhibitors, dose response, cell-based, Clone20 osteoblasts, firefly luciferase, cherry-picked (AID 624132).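 Note: firefly luciferase luminescence from reporter carrying the Shn3 3'UTR in osteoblasts.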 It is filed as functional.
A short description of assay [26]: HepG2 cell cytotoxicity, dose response, cytotoxicity control for Shn3 inhibitor project, CellTiter-Glo, cherry-picked (AID 624134). It is filed as functional, cell-based. Background: Cellular ATP, detected with luciferase, serves as a proxy for viable cell number.
Assay [27] is described as follows: control 3'UTR Renilla luciferase suppression, dose response, counter-screen for Shn3 inhibitor project, cell-based, Clone20-Shn3RL, cherry-picked (AID 624133). It is filed as functional.
Assay [28] can be described thus: A549 cell cytotoxicity, dose response, cytotoxicity control, plate reader, cherry-pick, antagonist series (AID 743412). It is filed as functional, cell-based.
A short description of assay [29]: HepG2 cell cytotoxicity, dose response, cytotoxicity control, plate reader, cherry-pick, antagonist series (AID 743416). It is filed as functional, cell-based.
Assay [30] in a line: LGR2 antagonists, dose response, cell-based, HEK293, CRE-luciferase reporter, cherry pick, set 2 (AID 743343).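 Note: transfected cells were stimulated with diluted bursicon conditioned medium after compound addition.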 The class given is functional. (In a reporter assay the amount or activity of a reporter protein is the signal.)
In assay [31] the target is 1-phosphatidylinositol 4,5-bisphosphate phosphodiesterase gamma-1 (Homo sapiens, UniProt P19174). The assay is described as follows: Counterscreen for inhibitors of phospholipase C isozymes (PLC-B3): Fluorescence-based biochemical high throughput dose response assay to identify inhibitors of phospholipase C isozymes (PLC-gamma1).
Sequence of 1-phosphatidylinositol 4,5-bisphosphate phosphodiesterase gamma-1 (P19174 whole entry): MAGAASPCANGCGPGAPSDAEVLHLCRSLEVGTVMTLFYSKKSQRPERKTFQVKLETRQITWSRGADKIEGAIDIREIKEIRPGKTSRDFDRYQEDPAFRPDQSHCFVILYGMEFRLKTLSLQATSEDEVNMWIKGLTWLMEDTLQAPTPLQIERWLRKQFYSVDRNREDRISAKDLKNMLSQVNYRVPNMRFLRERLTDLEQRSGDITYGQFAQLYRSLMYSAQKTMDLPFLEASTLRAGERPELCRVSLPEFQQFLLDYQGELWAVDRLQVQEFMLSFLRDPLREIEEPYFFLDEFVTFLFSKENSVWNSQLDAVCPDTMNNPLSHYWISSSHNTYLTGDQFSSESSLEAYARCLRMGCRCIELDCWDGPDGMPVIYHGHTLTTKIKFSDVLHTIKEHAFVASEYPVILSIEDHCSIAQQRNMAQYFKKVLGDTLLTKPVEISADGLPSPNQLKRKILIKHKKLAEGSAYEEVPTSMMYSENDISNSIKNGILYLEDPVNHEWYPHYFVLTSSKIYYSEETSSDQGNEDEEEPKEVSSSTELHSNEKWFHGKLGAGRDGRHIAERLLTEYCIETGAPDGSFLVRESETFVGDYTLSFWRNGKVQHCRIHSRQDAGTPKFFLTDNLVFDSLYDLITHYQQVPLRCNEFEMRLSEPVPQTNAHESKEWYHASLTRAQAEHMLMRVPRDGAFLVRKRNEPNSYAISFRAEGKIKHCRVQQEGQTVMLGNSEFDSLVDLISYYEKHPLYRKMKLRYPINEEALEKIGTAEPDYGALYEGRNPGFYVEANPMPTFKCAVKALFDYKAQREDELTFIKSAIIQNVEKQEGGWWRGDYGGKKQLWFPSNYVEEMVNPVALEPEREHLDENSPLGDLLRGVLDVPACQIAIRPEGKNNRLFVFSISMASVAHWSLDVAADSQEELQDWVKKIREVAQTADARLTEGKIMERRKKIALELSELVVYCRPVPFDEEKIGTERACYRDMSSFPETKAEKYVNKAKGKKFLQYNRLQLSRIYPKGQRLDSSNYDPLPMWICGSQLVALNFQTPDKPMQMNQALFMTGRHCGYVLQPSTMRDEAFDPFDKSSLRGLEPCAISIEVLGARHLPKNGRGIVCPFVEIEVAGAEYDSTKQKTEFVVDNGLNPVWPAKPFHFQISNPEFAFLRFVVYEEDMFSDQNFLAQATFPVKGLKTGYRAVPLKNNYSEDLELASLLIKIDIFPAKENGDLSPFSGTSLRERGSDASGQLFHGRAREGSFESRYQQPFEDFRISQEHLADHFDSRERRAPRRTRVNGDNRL
Assay [32] can be described thus: MC4R antagonists, dose response, counter-screen for LGR2 antagonist project, cell-based, plate reader, cherry pick (AID 743444).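 Note: transfected HEK 293 cells stimulated with alpha-MSH peptide; potency of inhibitors of the alpha-MSH evoked signal.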 It is filed as functional.
Assay [33] has as its target 1-phosphatidylinositol 4,5-bisphosphate phosphodiesterase beta-3 (Homo sapiens, UniProt Q01970). The assay is described as follows: Fluorescence-based biochemical high throughput dose response assay to identify inhibitors of phospholipase C isozymes (PLC-B3).
A short description of assay [34]: HEK293 cell cytotoxicity, dose response, cytotoxicity control, plate reader, cherry-picked samples (AID 743446). It is filed as functional, cell-based.
The nature of assay [35]: M. tuberculosis growth inhibition, HTS (AID 449762). It is filed as functional.
Another assay concerns P388/ADR. The assay is described as follows: cells. It is filed as functional. As to conditions: Mus musculus.
The test system of another assay is SN12K1. The assay is described as follows: cells. The class given is functional. The following applies: Homo sapiens.
The next assay concerns P388. The assay is described as follows: cells. The class given is functional. The following applies: Mus musculus.
Assay [36] is described as follows: half-maximal inhibitory concentration for glucagon-like peptide-1 release, STC-1 cell line, dose-response (AID 1117345). It is filed as functional, cell-based.
Assay [37] in a line: Glucagon-like peptide 1 release potency, NCI-H716 cell line, dose-response, half-maximal inhibitory concentration (AID 1117344). It is filed as functional, cell-based.
The subject of assay [38] is Streptococcus sp. 'group A'. The assay is described as follows: growth inhibition of control SK(-) GAS strain, dose response, counter-screen for streptokinase expression inhibitor project, luminescence, kanamycin, BacTiterGlo, confirmation (AID 1900). The class given is functional, organism-based.
A further assay addresses T1, Streptokinase A (Streptococcus pyogenes serotype M1, UniProt P10520).
T1 sequence (P10520 whole entry): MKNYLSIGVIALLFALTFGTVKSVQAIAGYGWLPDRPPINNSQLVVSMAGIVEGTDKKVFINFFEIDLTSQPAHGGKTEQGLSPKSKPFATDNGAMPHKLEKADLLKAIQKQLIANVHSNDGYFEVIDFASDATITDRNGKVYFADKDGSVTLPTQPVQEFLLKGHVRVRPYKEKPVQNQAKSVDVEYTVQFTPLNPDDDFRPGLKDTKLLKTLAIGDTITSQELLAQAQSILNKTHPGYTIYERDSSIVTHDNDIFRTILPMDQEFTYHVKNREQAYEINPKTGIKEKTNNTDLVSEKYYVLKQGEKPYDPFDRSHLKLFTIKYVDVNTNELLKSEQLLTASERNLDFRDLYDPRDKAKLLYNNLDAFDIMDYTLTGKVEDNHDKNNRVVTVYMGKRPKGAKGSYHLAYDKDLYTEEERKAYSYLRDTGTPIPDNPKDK
The assay is described as follows: S. pyogenes streptokinase expression inhibitors, potency, dose response, plasminogen activation absorbance, OD405 (AID 1914).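 Note: secreted streptokinase activity via plasminogen activation per viability signal from cell pellet.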 It is filed as functional, Streptococcus pyogenes M1 GAS.

In the next assay the test system is Streptococcus. The assay is described as follows: Group A Streptococcus viability loss, dose response, counter-screen for streptokinase expression inhibitor project, luminescence, BacTiterGlo (AID 1915).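 Note: potency for reduction of bacterial viability or growth.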 The class given is functional, organism-based.
The nature of assay [39]: Luminescence Cell-Based Dose Retest to Confirm Inhibitors of Cancer Stem Cells. [Related pubchem assays (depositor defined):AID2717, AID2721]. It is filed as functional. As to conditions: Homo sapiens.
In assay [40] the target is Disintegrin and metalloproteinase domain-containing protein 17 (Homo sapiens, UniProt P78536). The assay is described as follows: ADAM17 protease inhibitors, dose response, counter-screen for ADAM10 exosite inhibitor project, biochemical, quenched FRET substrate (AID 743253).
Sequence of Disintegrin and metalloproteinase domain-containing protein 17 (P78536 whole entry, the tested form may be a part): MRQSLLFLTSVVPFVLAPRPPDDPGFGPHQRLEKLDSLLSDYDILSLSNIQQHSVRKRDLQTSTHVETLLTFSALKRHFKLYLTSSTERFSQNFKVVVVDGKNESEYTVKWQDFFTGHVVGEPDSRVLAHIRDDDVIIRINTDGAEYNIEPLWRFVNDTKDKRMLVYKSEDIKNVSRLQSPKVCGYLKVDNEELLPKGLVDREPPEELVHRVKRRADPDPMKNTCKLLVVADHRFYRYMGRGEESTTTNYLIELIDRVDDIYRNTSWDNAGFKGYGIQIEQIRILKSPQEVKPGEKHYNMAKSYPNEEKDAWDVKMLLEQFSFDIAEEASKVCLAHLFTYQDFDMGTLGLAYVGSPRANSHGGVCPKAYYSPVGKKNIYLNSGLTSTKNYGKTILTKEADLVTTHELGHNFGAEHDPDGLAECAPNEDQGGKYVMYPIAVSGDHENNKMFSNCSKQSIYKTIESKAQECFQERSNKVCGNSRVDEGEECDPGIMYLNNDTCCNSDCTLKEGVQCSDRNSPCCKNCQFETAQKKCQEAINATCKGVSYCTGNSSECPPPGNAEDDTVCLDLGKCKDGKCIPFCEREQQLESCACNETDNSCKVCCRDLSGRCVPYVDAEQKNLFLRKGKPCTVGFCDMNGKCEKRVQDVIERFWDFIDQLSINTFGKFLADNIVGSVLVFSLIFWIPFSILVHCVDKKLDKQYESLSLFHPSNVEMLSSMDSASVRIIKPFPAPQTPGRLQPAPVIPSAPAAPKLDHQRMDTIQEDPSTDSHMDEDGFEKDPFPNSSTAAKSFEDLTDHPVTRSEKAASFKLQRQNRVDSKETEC

Activity calls are given as the source filed them.

In general, IC50 refers to the concentration that gives 50% inhibition. Usually AC50 stands for the concentration giving half of the maximal activity seen. The term EC50 denotes the concentration that produces a half-maximal response. As a reminder, the GI50 is the concentration at which growth is held to half of that of the control.

Sequence of 1-phosphatidylinositol 4,5-bisphosphate phosphodiesterase beta-3 (Q01970 whole entry): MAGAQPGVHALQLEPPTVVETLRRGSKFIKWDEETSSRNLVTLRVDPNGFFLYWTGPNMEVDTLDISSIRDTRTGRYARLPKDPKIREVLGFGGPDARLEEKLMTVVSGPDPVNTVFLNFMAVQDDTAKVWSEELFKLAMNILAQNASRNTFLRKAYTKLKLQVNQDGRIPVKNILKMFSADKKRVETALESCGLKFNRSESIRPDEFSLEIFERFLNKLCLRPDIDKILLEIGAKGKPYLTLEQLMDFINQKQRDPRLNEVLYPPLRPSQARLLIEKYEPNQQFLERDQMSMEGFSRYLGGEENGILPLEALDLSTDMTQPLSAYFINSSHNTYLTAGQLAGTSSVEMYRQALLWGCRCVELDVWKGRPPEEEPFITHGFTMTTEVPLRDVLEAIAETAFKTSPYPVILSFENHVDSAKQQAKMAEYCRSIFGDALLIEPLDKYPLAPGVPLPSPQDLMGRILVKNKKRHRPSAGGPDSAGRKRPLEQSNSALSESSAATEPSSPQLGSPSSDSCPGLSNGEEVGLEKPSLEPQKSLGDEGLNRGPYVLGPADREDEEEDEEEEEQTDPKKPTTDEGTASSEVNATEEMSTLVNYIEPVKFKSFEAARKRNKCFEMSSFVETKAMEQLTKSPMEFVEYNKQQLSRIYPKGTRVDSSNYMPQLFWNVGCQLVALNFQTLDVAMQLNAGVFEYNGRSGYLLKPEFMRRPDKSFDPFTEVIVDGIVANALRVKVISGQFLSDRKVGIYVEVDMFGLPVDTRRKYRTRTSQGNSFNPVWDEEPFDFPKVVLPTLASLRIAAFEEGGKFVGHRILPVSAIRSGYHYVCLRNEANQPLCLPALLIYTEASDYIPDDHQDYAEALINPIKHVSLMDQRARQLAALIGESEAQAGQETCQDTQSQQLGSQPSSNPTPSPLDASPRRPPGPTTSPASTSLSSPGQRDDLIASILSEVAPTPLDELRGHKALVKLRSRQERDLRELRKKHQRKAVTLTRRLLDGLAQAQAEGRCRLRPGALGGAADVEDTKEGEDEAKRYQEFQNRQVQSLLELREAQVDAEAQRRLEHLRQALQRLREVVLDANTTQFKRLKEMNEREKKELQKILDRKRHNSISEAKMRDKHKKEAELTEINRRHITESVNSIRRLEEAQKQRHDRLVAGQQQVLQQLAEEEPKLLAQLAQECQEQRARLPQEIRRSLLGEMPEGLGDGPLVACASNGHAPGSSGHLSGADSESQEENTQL
Sequence of Neurotensin receptor type 1 (P30989 whole entry): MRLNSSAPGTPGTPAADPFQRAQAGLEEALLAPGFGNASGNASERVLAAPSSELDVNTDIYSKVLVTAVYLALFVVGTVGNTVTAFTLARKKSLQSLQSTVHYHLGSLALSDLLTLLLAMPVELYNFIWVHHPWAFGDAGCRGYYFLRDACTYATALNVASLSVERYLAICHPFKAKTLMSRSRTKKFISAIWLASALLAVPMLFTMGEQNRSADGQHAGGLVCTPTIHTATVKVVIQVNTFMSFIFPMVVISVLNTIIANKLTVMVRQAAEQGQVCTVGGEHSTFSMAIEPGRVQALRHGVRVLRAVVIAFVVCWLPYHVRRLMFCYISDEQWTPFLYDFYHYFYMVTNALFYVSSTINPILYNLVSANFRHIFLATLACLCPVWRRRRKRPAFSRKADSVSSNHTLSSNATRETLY

Turning to `CC(C)c1onc(C(=O)N2CCN(Cc3ccccc3)CC2)c1[N+](=O)[O-]`, the IC50 in assay [1] was 1.5 µM (active).

In the case of `CC(C)c1cc(C(=O)O)c2cnn(C(C)C)c2n1`, the values for the IC50 in assay [2] and in assay [3] were > 109 µM (inactive) and > 83.2 µM (inactive), respectively.

For `C=CCNC1=C(NCCN(CC)CC)C(=O)c2ccccc2C1=O`, the AC50 in assay [4] was 36 µM (active); in assay [5], 17.4 µM (active).

For `O=C(c1cccc(F)c1)N1CC(=O)N2[C@H](C1)[C@@H](c1ccc(-c3cccnc3)cc1)[C@@H]2CO`, the half-maximal activity concentration (AC50) in [6] was 0.151 µM (active); in assay [7], 0.331 µM (active); in assay [8], 0.088 µM (active); in assay [9], 0.0729 µM (active).

For `c1ccc(-c2nc3c(ccc4ccccc43)[nH]2)nc1`, the 50% effective concentration (EC50) in [10] was 4.22 µM (active); in assay [11], 27.1 µM (active). In addition, the CC50 was > 40 µM (active) in assay [12], 38.9 µM (active) in [13] and > 20 µM (active) in assay [14]. The IC50 in the assay “cells” is 18.9 µM (active); in assay [17], 14.4 µM (active). Moreover, the figures for the half-maximal activity concentration (AC50) in [15] and in [16] were 119 µM (active) and 79 µM (active), respectively.

Take `CN(C(=O)COc1ccccc1C(=O)NCCOc1ccccc1)c1ccccc1`: the EC50 is 5.76 µM (active) with HEK293 [18], 7.78 µM (active) in assay [21] and 17.9 µM (active) in [24]. Also, the IC50 in the assay on HEK293 [19] is 3.82 µM (active); in the assay on HEK293 [20], 11.2 µM (active); in the assay with HEK293 [22], 4.32 µM (active); in the assay on HEK293 [23], 3.42 µM (active); in assay [31], > 122 µM (inactive); in [33] it was > 122 µM (inactive). Moreover, the half-maximal activity concentration (AC50) in assay [25] is 1.57 µM (active); in assay [26], 51.9 µM (active); in [27], 4.23 µM (active); in assay [28], 20.8 µM (active); in [29], 32.7 µM (active); in assay [30] it was 12.8 µM (active). Besides, the values for the concentration at half-maximal activity (AC50) in assay [32] and in [34] were 11.2 µM (active) and 15.9 µM (active), respectively.

Consider `Fc1ccc(N/N=C2/CC(c3ccccc3)Oc3ccccc32)c(F)c1` (stereo unspecified), for which the concentration for half-maximal inhibition (IC50) in assay [35] was > 100 µM (active).

On to `CCCCCCCCCCCCCCCCCCOCC(O)CO` (stereo unspecified) [BATILOL], for which the GI50 was 9.82 µM (inactive) in the assay on P388/ADR, 22.5 µM (inactive) in the assay on SN12K1 and 6.65 µM (inactive) in the assay with P388. In addition, the IC50 in assay [36] and in assay [37] was > 40 µM (inactive) throughout.

For the molecule `Oc1ccc(Cl)cc1-c1cc(-c2cccc(Br)c2)[nH]n1`, the EC50 was 5.6 µM (active) in assay [38], > 150 µM (not active) at Streptokinase A and 6.65 µM (active) in the assay on Streptococcus. In addition, the concentration at half-maximal activity (AC50) in [39] is 5.22 µM (active). The IC50 in assay [40] was > 69.5 µM (inactive).

These data come from ChEMBL document CHEMBL1201862, “PubChem BioAssay data set” (2004).
